Earlier results in patent publication US6773610B2, “Method for controlling biofilm” (priority 1999, dated 2004).

Test system: bacteria and viruses
Conditions: versus chlorine

O=[O+][O-] [Ozone]
Speed of deactivation of bacteria and viruses relative to chlorine: 3125 times faster
